{
  "source": "ChEMBL document CHEMBL1129208",
  "about": "“Synthesis and activity of 2,6,9-trisubstituted purines” (Bioorg Med Chem Lett, 1997)",
  "note": "“And” between values parts separate entries of the source, which are not always exact repeats. Equal entries are not always repeated.",
  "data": [
    {"target": "Cyclin-dependent kinase 2/cyclin E (Homo sapiens, UniProt P24941)", "assay": "Inhibitory concentration against cyclin dependent kinase-2 (CDK2)/Cyclin E", "type": "protein-complex assay", "values": [
      {"smiles": "CN(Cc1ccc(C(=O)O)cc1)c1[nH]c(Cl)nc2ncnc1-2", "IC50": "> 5000 nM"},
      {"smiles": "COc1ccc(CNc2nc(C3CC[C@@H](Cc4ccccc4N)N3)nc3c2ncn3C(C)C)cc1", "note": "(some centres not stated)", "IC50": "> 5000 nM"},
      {"smiles": "CC(C)n1cnc2c(Nc3ccc(Br)cc3)nc(N(CCO)CCO)nc21", "IC50": "1000 nM"},
      {"smiles": "COc1ccc(CNc2nc(NCC(O)CO)nc3c2ncn3C(C)C)cc1", "note": "(configuration not stated)", "IC50": "2000 nM"},
      {"smiles": "Cn1cnc2c(NCCc3ccccc3)nc(Cl)nc21", "IC50": "> 5000 nM"},
      {"smiles": "CN(c1ccncc1)c1nc(Cl)nc2c1ncn2C1CCCC1", "IC50": "> 5000 nM"},
      {"smiles": "CC(C)n1cnc2c(N(C)Cc3ccc(-c4ccccc4)cc3)nc(Cl)nc21", "IC50": "> 5000 nM"},
      {"smiles": "COc1ccc(CNc2nc(N(CCO)CCO)nc3c2ncn3CC(C)C)cc1", "IC50": "2000 nM"},
      {"smiles": "COc1ccc(CNc2nc(N(CCO)CCO)nc3c2ncn3Cc2cccc([N+](=O)[O-])c2)cc1", "IC50": "2000 nM"},
      {"smiles": "CC(C)n1cnc2c(N(C)C3CC3)nc(N(CCO)CCO)nc21", "IC50": "2000 nM"},
      {"smiles": "COc1ccc(CNc2nc(N3CCC(O)C3)nc3c2ncn3C(C)C)cc1", "note": "(configuration not stated)", "IC50": "> 5000 nM"},
      {"smiles": "CC(C)n1cnc2c(NCc3ccc4c(c3)OCO4)nc(N(CCO)CCO)nc21", "IC50": "800 nM"},
      {"smiles": "COc1ccc(CNc2nc(Cl)nc3c2ncn3C)cc1", "IC50": "4000 nM and 700 nM"},
      {"smiles": "COc1ccc(CNc2nc(N(CCO)CCO)nc3c2ncn3Cc2ccc3ccccc3c2)cc1", "IC50": "5000 nM"},
      {"smiles": "CC(C)(C)OC(=O)Cn1cnc2c(NCc3ccc(-c4ccccc4)cc3)nc(N(CCO)CCO)nc21", "IC50": "5000 nM"},
      {"smiles": "CC(C)n1cnc2c(NCc3ccc(-c4ccccc4)cc3)nc(NCc3ccco3)nc21", "IC50": "> 5000 nM"},
      {"smiles": "CCCCCCCC/C=C\\CCCCCCCCn1cnc2c(NCc3ccc(OC)cc3)nc(N(CCO)CCO)nc21", "IC50": "3000 nM"},
      {"smiles": "COc1ccc(CNc2nc(N(CCO)CCO)nc3c2ncn3Cc2ccccc2-c2ccccc2)cc1", "IC50": "> 5000 nM"},
      {"smiles": "COCCN(CCOC)c1nc(NCc2ccc(-c3ccccc3)cc2)c2ncn(C(C)C)c2n1", "IC50": "5000 nM"},
      {"smiles": "COc1ccc(CNc2nc(N(CCO)CCO)nc3c2ncn3CCO)cc1", "IC50": "1000 nM"},
      {"smiles": "CC(C)n1cnc2c(Nc3cccc4cccnc34)nc(N(CCO)CCO)nc21", "IC50": "> 5000 nM"},
      {"smiles": "COc1ccc(CNc2nc(N(CCO)CCO)nc3c2ncn3CC(O)CO)cc1", "note": "(configuration not stated)", "IC50": "> 5000 nM"},
      {"smiles": "COCCCNc1nc(Cl)nc2c1ncn2C", "IC50": "> 5000 nM"},
      {"smiles": "FC(F)(F)n1cnc2c(NCc3ccc(Cl)cc3)nc(Cl)nc21", "IC50": "1000 nM"},
      {"smiles": "COc1ccc(CNc2nc(NCCN)nc3c2ncn3C(C)C)cc1", "IC50": "> 5000 nM"},
      {"smiles": "Cn1cnc2c(NC3CCN(Cc4ccccc4)CC3)nc(Cl)nc21", "IC50": "> 5000 nM"},
      {"smiles": "O=C1c2ccccc2C(=O)N1CCNc1nc(Cl)nc2nc[nH]c12", "IC50": "> 5000 nM"},
      {"smiles": "CC(C)n1cnc2c(NCc3ccc(C4=CC(=S)CC=C4)cc3)nc(N(CCO)CCO)nc21", "IC50": "> 5000 nM"},
      {"smiles": "COc1ccc(CNc2nc(N(CCO)Cc3ccccc3)nc3c2ncn3C(C)C)cc1", "IC50": "1000 nM"},
      {"smiles": "COc1ccc(CNc2nc(N3CCCC3)nc3c2ncn3C(C)C)cc1", "IC50": "5000 nM"},
      {"smiles": "CC(C)Cn1cnc2c(N(C)c3cccnc3)nc(Cl)nc21", "IC50": "> 5000 nM"},
      {"smiles": "CC(C)n1cnc2c(NC3Cc4ccccc4C3)nc(N(CCO)CCO)nc21", "IC50": "> 5000 nM"},
      {"smiles": "COc1ccc(CNc2nc(N3CCC(O)CC3)nc3c2ncn3C(C)C)cc1", "IC50": "2000 nM"},
      {"smiles": "COc1ccc(CNc2nc(N(C)CC(O)c3ccccc3)nc3c2ncn3C(C)C)cc1", "note": "(configuration not stated)", "IC50": "> 5000 nM"},
      {"smiles": "COc1ccc(CNc2nc(NCCO)nc3c2ncn3C(C)C)cc1", "IC50": "1500 nM"},
      {"smiles": "N#CCCCNc1nc(Cl)nc2nc[nH]c12", "IC50": "> 5000 nM"},
      {"smiles": "CCn1cnc2c(NCCc3ccccc3)nc(Cl)nc21", "IC50": "> 5000 nM"},
      {"smiles": "CCC(C)Cn1cnc2c(NCc3ccc(OC)cc3)nc(N(CCO)CCO)nc21", "note": "(configuration not stated)", "IC50": "2000 nM"},
      {"smiles": "Cn1cnc2c(NCCCCCCO)nc(Cl)nc21", "IC50": "> 5000 nM"},
      {"smiles": "C=CCN(CC=C)c1nc(NCc2ccc(OC)cc2)c2ncn(C(C)C)c2n1", "IC50": "> 5000 nM"},
      {"smiles": "CCCn1cnc2c(NCCCCCCO)nc(Cl)nc21", "IC50": "> 5000 nM"},
      {"smiles": "Cn1cnc2c(NC3CCCC3)nc(Cl)nc21", "IC50": "> 5000 nM"},
      {"smiles": "COc1ccc(CNc2nc(N(CCO)CCO)nc3c2ncn3C2CCCC2)cc1", "IC50": "2000 nM"},
      {"smiles": "CC(C)n1cnc2c(Nc3ccc(Br)cc3)nc(Nc3ccc(Br)cc3)nc21", "IC50": "5000 nM"},
      {"smiles": "Cn1cnc2c(NCc3cccnc3)nc(Cl)nc21", "IC50": "> 5000 nM"},
      {"smiles": "COc1ccc(CNc2nc(NC3CCCCC3O)nc3c2ncn3C(C)C)cc1", "note": "(configuration not stated)", "IC50": "1000 nM"},
      {"smiles": "CC(C)n1cnc2c(Nc3nc4ccccc4s3)nc(Cl)nc21", "IC50": "> 5000 nM"},
      {"smiles": "CC(O)Nc1nc(NCc2ccc(-c3ccccc3)cc2)c2ncn(C(C)C)c2n1", "note": "(configuration not stated)", "IC50": "3000 nM"},
      {"smiles": "ClCCCCNc1[nH]c(Cl)nc2ncnc1-2", "IC50": "> 5000 nM"},
      {"smiles": "COc1ccc(CNc2nc(N(C)CC(O)c3ccc(O)c(O)c3)nc3c2ncn3C(C)C)cc1", "note": "(configuration not stated)", "IC50": "3000 nM"},
      {"smiles": "Cn1cnc2c(NCc3ccncc3)nc(Cl)nc21", "IC50": "> 5000 nM"},
      {"smiles": "COc1ccc(CNc2nc(NC(C)(O)CO)nc3c2ncn3C(C)C)cc1", "note": "(configuration not stated)", "IC50": "500 nM"},
      {"smiles": "CC(C)n1cnc2c(NCc3ccc(-c4ccccc4)cc3)nc(N(CCO)CCO)nc21", "IC50": "1000 nM"},
      {"smiles": "COc1ccc(CNc2nc(NC(O)CN)nc3c2ncn3C(C)C)cc1", "note": "(configuration not stated)", "IC50": "1000 nM"},
      {"smiles": "CC(C)n1cnc2c(NCCCc3ccccc3)nc(N(CCO)CCO)nc21", "IC50": "> 5000 nM"},
      {"smiles": "COc1ccc(CNc2nc(NCCO)nc3c2ncn3C)cc1", "IC50": "2500 nM"},
      {"smiles": "Clc1nc(NCc2ccccc2)c2[nH]cnc2n1", "IC50": "> 5000 nM"},
      {"smiles": "Cn1cnc2c(NC(C)(C)CO)nc(Cl)nc21", "IC50": "> 5000 nM"},
      {"smiles": "COc1ccc(CNc2nc(Cl)nc3c2ncn3Cc2ccc(-c3ccccc3)cc2)cc1", "IC50": "> 5000 nM"},
      {"smiles": "COc1ccc(CNc2nc(NCCc3c[nH]c4ccccc34)nc3c2ncn3C(C)C)cc1", "IC50": "2000 nM"},
      {"smiles": "Cn1cnc2c(Nc3nc4ccccc4s3)nc(Cl)nc21", "IC50": "> 5000 nM"},
      {"smiles": "CC(C)n1cnc2c(NCc3ccc(-c4cccs4)cc3)nc(N(CCO)CCO)nc21", "IC50": "600 nM"},
      {"smiles": "CC(C)n1cnc2c(Nc3cnc4ccccc4c3)nc(N(CCO)CCO)nc21", "IC50": "2000 nM"},
      {"smiles": "COCCNc1nc(Cl)nc2c1ncn2C", "IC50": "> 5000 nM"},
      {"smiles": "COc1ccc(CNc2nc(N(Cc3cccnc3)CC(C)C#N)nc3c2ncn3C(C)C)cc1", "note": "(configuration not stated)", "IC50": "1000 nM"},
      {"smiles": "CC(C)n1cnc2c(Nc3ccccc3)nc(N(CCO)CCO)nc21", "IC50": "2000 nM"},
      {"smiles": "CCCCc1ccc(CNc2nc(N(CCO)CCO)nc3c2ncn3C(C)C)cc1", "IC50": "2000 nM"},
      {"smiles": "COc1ccc(CNc2nc(N3CCCCC3CO)nc3c2ncn3C(C)C)cc1", "note": "(configuration not stated)", "IC50": "4000 nM"},
      {"smiles": "CC(C)n1cnc2c(NCc3ccc(-c4ccccc4)cc3)nc(NCC(O)CO)nc21", "note": "(configuration not stated)", "IC50": "600 nM"},
      {"smiles": "CC(C)n1cnc2c(NCc3ccc(Br)cc3)nc(N(CCO)CCO)nc21", "IC50": "2000 nM"},
      {"smiles": "COc1ccc(CNc2nc(N(CCO)CCO)nc3c2ncn3Cc2ccc([N+](=O)[O-])cc2)cc1", "IC50": "2000 nM"},
      {"smiles": "CC(C)n1cnc2c(Nc3ccc(-c4ccccc4)cc3)nc(N(CCO)CCO)nc21", "IC50": "600 nM"}
    ]}
  ]
}
